Results: patent publication US11752162B2, “Compounds and compositions for treating solid tumors by intratumoral administration” (Novartis AG, priority 2017, dated 2023)

Legend:
[1] = Adsorption of compounds to aluminum hydroxide in histidine buffer (pH 6.8); assay type: physicochemical; settings: histidine buffer pH 6.8, 0.1 mg/mL compound, 37° C. 5 hours
Protocol: The resulting solution was diluted 10-fold with blank histidine buffer to a final compound concentration of 0.1 mg/mL. Diluted solutions were incubated at 37° C. for 5 hours. The samples were centrifuged at 14,000 rpm for 10 minutes to pellet the insoluble. The supernatant (along with an internal standard) was then evaluated by LC-MS/MS using a ballistic gradient (from 5% CH3CN-0.5% formic acid to 95% CH3CN-1.0% formic acid in 3.5 minutes) on a Waters Atlantis dC18 (50 mm×2.1 mm) column at room temperature against a calibration curve prepared at known compound concentrations ranging from 0.005 to 50 μM. The concentration in the supernatant was calculated as % unbound to aluminum hydroxide compared to control; the % bound to aluminum hydroxide was calculated as 100% minus % unbound.

[2] = Pharmacokinetics and mass balance of aluminum and Compound 15 in male Wistar rats (Example 12); assay type: in vivo, rat; settings: single i.v. dose equivalent to 0.2 mg of aluminum per animal
Protocol: The pharmacokinetics and mass balance of aluminum and Compound 15 were investigated following a single subcutaneous (s.c.) dose (1 mL) of Suspension H (Compound 15/Alhydrogel® at a 2:1 ratio of aluminum to Compound 15) in male Wistar rats. In addition, the pharmacokinetics of aluminum were investigated following a single intravenous (i.v.) dose (0.5 mL) of 0.4 mg/mL AlCl3.6H2O (equivalent to 0.2 mg of aluminum) in male Wistar rat. Additionally, a control group dosed subcutaneously with saline were evaluated for environmental background aluminum levels.
Metal free/trace metal grade containers/tubes/tips (<1 ng/g Al) were used for sample handling. Aluminum content was analyzed in serum and urine (Frontage Laboratories).
Approximately 0.3 to 0.5 mL of blood samples were collected from carotid artery cannulation at 0 (pre dose), 0.083 (IV only), 0.25 (IV only), 0.5, 3, 6, 24, 72, 168, 336, 504, 672 hours post dose.
Urine was collected from each animal for the following periods: 0 (24 h before dose), 0-24, 24-48, 48-72, 72-96, 96-168 hours post dose, then weekly up to 672 h. The urine samples were stored at −20° C. until analyzed. Feces were collected from each animal and samples were pooled per subject at the end of study at 672 h.
Compound 15 and aluminum levels were analyzed in the serum and urine samples obtained from the s.c. group whereas only aluminum levels were analyzed in the i.v. group.

MC38 tumors = assay: Contralateral MC38 colon cancer model, alone or with checkpoint inhibitors; assay type: in vivo, mouse; settings: single agents; Compound 15 50 μg i.t. weekly x2, antibodies 10 mg/kg i.p. twice weekly
Protocol: MC38 cells were grown in sterile conditions in a 37° C. incubator with 5% CO2 for two weeks. The cells were cultured in Dulbecco's Modified Eagle's medium (DMEM) media supplemented with 10% FBS, cells were passed every 2-3 days. On the day of injection, cells were harvested (Passage 12) and re-suspended in Hanks' Balanced Salt Solution (HBSS) at a concentration of 2.5×10^6/ml. Cells were Radil tested for mycoplasma and murine viruses.
For each mouse, 0.25×10^6 cells were implanted with subcutaneously injection into right flank using a 28½ g needle ([…]). After the first implantation on day 3 (0.25×10^6) cells are implanted with a subcutaneous injection into left flank using a 28½ g needle (100 μL injection volume). Tumor sizes were assessed three times a week once tumors were palpable. Tumor sizes were determined by using caliper measurements, with tumor volumes calculated using the formula: (Length×Width×Width)/2.
Female C57BL/6 mice bearing the MC38 tumors were randomized into 7 groups (n=9 mice per group) 9 days post tumor cell implantation with an average tumor volume range of 69.09-142.25 mm^3, and the separate groups of tumor bearing mice received treatment as shown in Table 17.
The anti-tumor efficacy of Compound 15 adsorbed to aluminum hydroxide (Alhydrogel®) alone or in combination with checkpoint inhibitors, was determined using a contralateral MC38 colon cancer model. The tumor volume was obtained after two weekly intratumoral injections of Compound 15 adsorbed to aluminum hydroxide (50 μg each) either alone (Group 2), in a double combination with intraperitoneal injection (twice weekly) of an anti-PD-L1 antibody (10 mg/kg) (Group 5), in a double combination with intraperitoneal injection (twice weekly) of an anti-CTLA4 antibody (10 mg/kg) (Group 6), or in a triple combination with intraperitoneal injection (twice weekly) of an anti-PD-L1 antibody (10 mg/kg) and with intraperitoneal injection of an anti-CTLA4 antibody (10 mg/kg) (group 7). For comparison, data was obtained after an intraperitoneal injection (twice weekly) of the anti-PD-L1 antibody (10 mg/kg) alone (Group 3) and after an intraperitoneal injection (twice weekly) of the anti-CTLA4 antibody (10 mg/kg) alone (Group 4). The untreated control data was also obtained (Group 1).
The anti-tumor efficacy of Compound 15 alone (without aluminum hydroxide (Alhydrogel®)) or in combination with checkpoint inhibitors was determined using a contralateral MC38 colon cancer model. […] In addition, the anti-tumor efficacy of Compound 15 adsorbed to aluminum hydroxide (Alhydrogel®) alone or in a triple combination with checkpoint inhibitors was determined using a contralateral MC38 colon cancer model. […]

[3] = test system: MC38 syngeneic colon cancer tumor model; assay: MC38 syngeneic colon cancer tumor model, tumor volume at injection site and distant site; assay type: in vivo, mice; settings: One-Way ANOVA post hoc Tukey, difference from no treatment
Source text: FIG. 10: A) Efficacy at the intratumor injection site following administration of Compound 15/aluminum hydroxide, an anti-PDL1 antibody or an anti-CTLA4 antibody as single agents or after the administration of combinations of Compound 15/aluminum hydroxide and an anti-PDL1 antibody and/or an anti-CTLA4 antibody.
The effect on tumor volume by administration of a compound of Formula (A), in the presence of aluminum-containing particles, with and without the administration of one or more checkpoint inhibitors is shown in Example 14.
Percent treatment/control (T/C) values for tumor were calculated using the following formula: % T/C=100×ΔT/ΔC if ΔT>0% % Regression=100×ΔT/Tinitial if ΔT<0 where: • T=mean tumor volume of the drug-treated group on the final day of the study; • ΔT=mean tumor volume of the drug-treated group on the final day of the study minus mean tumor volume of the drug-treated group on initial day of dosing; • Tinitial=mean tumor volume of the drug-treated group on initial day of dosing; • C=mean tumor volume of the control group on the final day of the study; • ΔC=mean tumor volume of the control group on the final day of the study minus mean tumor volume of the control group on initial day of dosing. All data were expressed as mean±standard error of the mean (SEM). Delta tumor volume

Molecule: Cc1ccc2c(c1)nc(N)c1ncc(CCc3ccc(OCCOCCOCCC(F)(F)P(=O)(O)O)cc3C)cc12 [Compound 1, (3-(2-(2-(4-(2-(5-amino-8-methylbenzo[f][1,7]naphthyridin-2-yl)ethyl)-3-methylphenoxy)ethoxy)ethoxy)-1,1-difluoropropyl)phosphonic acid]
- % Bound [1]: 98.2%

Molecule: O.O.O.O.O.O.[Al+3].[Cl-].[Cl-].[Cl-] [AlCl3.6H2O]
- AUClast of aluminum [2]: 67400 ng·h/mL
- mean Cmax of aluminum in serum [2]: 26000 ng/mL
- mean Tmax of aluminum [2]: 13.2 min
- mean recovery of aluminum in urine [2]: ~0.2 mg

Molecule: Cc1cc(OCCOCCOCCC(F)(F)P(=O)(O)O)ccc1CCc1cnc2c(N)nc3cc(CCC(=O)O)ccc3c2c1 [Compound 18, 3-(5-amino-2-(4-(2-(2-(3,3-difluoro-3-phosphonopropoxy)ethoxy)ethoxy)-2-methylphenethyl)benzo[f][1,7]naphthyridin-8-yl)propanoic acid]
- % Bound [1]: 96.2%

Molecule: Cc1cc(OCCCC(F)(F)P(=O)(O)O)ccc1CCc1cnc2c(N)nc3cc(CCC(=O)O)ccc3c2c1 [Compound 17, 3-(5-amino-2-(4-(4,4-difluoro-4-phosphonobutoxy)-2-methylphenethyl)benzo[f][1,7]naphthyridin-8-yl)propanoic acid]
- % Bound [1]: 94.5%

Molecule: Cc1cc(OCCOCCOCCP(=O)(O)O)ccc1CCc1cnc2c(N)nc3cc(CCC(=O)O)ccc3c2c1 [Compound 20, 3-(5-amino-2-(2-methyl-4-(2-(2-(2-phosphonoethoxy)ethoxy)ethoxy)phenethyl)benzo[f][1,7]naphthyridin-8-yl)propanoic acid]
- % Bound [1]: 97.0%

B1: anti-PD-L1: Anti-PD-L1 antibody BAP058-hum13 with heavy chain variable domain of SEQ ID NO:7 and light chain variable domain of SEQ ID NO:17 (antibody, V domains shown)
VH: EVQLVQSGAEVKKPGATVKISCKVSGYTFTSYWMYWVRQARGQRLEWIGRIDPNSGSTKYNEKFKNRFTISRDNSKNTLYLQMNSLRAEDTAVYYCARDYRKGLYAMDYWGQGTTVTVSS
VL: AIQLTQSPSSLSASVGDRVTITCKASQDVGTAVAWYLQKPGQSPQLLIYWASTRHTGVPSRFSGSGSGTDFTFTISSLEAEDAATYYCQQYNSYPLTFGQGTKVEIK
- % T/C at the contralateral tumor site (MC38 tumors): 27.02%
- % T/C at the primary injection site (MC38 tumors): 56.22%

B2: Anti PD-L1: anti-PDL1 antibody, inhibitor of the PD-L1 ligand, used as single agent or combination partner (antibody, V domains shown)
VH: B1 VH
VL: B1 VL
- Efficacy at a site distant from the injection site (distant site tumor) ([3]; post implant day 19, N=9 per group): significantly different
- Efficacy at the intratumor injection site (treated site tumor) ([3]; post implant day 22, N=9 per group): significantly different
